In US10670605B2, “Cysteine reactive probes and uses thereof” (The Scripps Research Institute, priority 2015, dated 2020):

Legend:
Experiment in all cases: Competitive isoTOP-ABPP in situ (fragment-treated cells)
Format in all cases: cell-based
[1] = target: cysteines in MDA-MB-231 and Ramos cells (Homo sapiens, UniProt P51610)
[2] = target: cysteines in MDA-MB-231 and Ramos cells (Homo sapiens, UniProt Q13630); settings: 200 μM, insitu
[3] = target: T1, cysteines in MDA-MB-231 and Ramos cells (Homo sapiens, UniProt Q86YH6)
T1 sequence (Q86YH6 1-399): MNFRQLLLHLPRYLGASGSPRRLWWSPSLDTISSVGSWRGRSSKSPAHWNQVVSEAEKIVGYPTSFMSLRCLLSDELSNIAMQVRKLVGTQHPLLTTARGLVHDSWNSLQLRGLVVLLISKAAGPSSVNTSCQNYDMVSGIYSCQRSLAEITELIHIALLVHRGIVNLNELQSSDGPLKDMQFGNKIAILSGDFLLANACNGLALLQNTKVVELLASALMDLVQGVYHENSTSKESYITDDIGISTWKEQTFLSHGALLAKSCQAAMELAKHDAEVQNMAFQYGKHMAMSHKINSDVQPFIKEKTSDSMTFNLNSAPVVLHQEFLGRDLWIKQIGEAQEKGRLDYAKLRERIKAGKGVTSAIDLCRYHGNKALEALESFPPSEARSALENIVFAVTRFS

[4] = target: cysteines in MDA-MB-231 and Ramos cells (Homo sapiens, UniProt Q8NDH3)
[5] = target: cysteines in MDA-MB-231 and Ramos cells (Homo sapiens, UniProt Q96EY5)
[6] = target: cysteines in MDA-MB-231 and Ramos cells (Homo sapiens, UniProt P22061)
[7] = target: T2, cysteines in MDA-MB-231 and Ramos cells (Homo sapiens, UniProt P35754)
T2 sequence (P35754 1-106): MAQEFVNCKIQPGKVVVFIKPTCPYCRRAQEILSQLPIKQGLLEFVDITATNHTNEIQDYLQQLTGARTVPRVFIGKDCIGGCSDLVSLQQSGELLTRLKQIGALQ

[8] = target: cysteines in MDA-MB-231 and Ramos cells (Homo sapiens, UniProt P48643)
[9] = target: cysteines in MDA-MB-231 and Ramos cells (Homo sapiens, UniProt Q00765)
[10] = target: cysteines in MDA-MB-231 and Ramos cells (Homo sapiens, UniProt Q5MNZ6)
[11] = target: cysteines in MDA-MB-231 and Ramos cells (Homo sapiens, UniProt Q96NY7)
[12] = target: T3, cysteines in MDA-MB-231 and Ramos cells (Homo sapiens, UniProt Q9NPH0)
T3 sequence (Q9NPH0 33-428): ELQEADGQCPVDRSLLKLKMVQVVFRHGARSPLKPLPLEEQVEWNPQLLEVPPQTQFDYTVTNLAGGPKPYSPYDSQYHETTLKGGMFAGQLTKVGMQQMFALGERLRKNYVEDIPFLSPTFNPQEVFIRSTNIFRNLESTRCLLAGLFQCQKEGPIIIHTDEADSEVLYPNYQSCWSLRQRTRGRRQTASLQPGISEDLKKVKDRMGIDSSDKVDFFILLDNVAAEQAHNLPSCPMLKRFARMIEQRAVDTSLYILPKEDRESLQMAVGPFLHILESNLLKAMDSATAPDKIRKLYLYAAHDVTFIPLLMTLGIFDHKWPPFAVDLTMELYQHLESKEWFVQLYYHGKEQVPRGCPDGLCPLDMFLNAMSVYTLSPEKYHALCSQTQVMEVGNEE

[13] = target: cysteines in MDA-MB-231 and Ramos cells (Homo sapiens, UniProt P49189); settings: 200 μM, insitu
[14] = target: cysteines in MDA-MB-231 and Ramos cells (Homo sapiens, UniProt P51812)
Sequence of cysteines in MDA-MB-231 and Ramos cells (Homo sapiens, UniProt P51812) (P51812 whole entry): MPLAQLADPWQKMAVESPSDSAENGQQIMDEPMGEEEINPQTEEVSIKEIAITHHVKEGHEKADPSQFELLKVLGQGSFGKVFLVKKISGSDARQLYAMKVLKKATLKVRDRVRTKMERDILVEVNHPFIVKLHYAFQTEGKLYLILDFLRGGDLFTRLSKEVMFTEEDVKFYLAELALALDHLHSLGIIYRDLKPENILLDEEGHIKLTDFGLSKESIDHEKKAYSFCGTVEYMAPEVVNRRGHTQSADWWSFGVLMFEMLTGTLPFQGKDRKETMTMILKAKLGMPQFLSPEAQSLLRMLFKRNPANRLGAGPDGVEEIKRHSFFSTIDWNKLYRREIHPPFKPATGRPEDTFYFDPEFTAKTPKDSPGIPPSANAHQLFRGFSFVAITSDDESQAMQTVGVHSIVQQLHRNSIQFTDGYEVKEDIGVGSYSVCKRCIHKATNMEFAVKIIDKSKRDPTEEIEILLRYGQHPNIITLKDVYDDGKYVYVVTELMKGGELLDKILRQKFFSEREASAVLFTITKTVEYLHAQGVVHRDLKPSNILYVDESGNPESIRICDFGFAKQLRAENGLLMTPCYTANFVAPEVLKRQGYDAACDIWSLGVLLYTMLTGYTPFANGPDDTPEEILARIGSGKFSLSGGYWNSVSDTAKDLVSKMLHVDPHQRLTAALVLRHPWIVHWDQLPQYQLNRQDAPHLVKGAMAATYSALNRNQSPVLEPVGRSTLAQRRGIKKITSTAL

Sequence of cysteines in MDA-MB-231 and Ramos cells (Homo sapiens, UniProt P22061) (P22061 whole entry): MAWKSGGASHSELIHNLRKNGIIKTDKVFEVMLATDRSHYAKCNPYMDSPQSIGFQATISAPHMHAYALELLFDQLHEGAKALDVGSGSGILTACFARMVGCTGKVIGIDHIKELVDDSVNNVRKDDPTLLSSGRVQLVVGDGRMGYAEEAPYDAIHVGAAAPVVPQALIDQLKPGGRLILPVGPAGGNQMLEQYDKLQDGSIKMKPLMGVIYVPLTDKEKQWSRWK
Sequence of cysteines in MDA-MB-231 and Ramos cells (Homo sapiens, UniProt P49189) (P49189 whole entry): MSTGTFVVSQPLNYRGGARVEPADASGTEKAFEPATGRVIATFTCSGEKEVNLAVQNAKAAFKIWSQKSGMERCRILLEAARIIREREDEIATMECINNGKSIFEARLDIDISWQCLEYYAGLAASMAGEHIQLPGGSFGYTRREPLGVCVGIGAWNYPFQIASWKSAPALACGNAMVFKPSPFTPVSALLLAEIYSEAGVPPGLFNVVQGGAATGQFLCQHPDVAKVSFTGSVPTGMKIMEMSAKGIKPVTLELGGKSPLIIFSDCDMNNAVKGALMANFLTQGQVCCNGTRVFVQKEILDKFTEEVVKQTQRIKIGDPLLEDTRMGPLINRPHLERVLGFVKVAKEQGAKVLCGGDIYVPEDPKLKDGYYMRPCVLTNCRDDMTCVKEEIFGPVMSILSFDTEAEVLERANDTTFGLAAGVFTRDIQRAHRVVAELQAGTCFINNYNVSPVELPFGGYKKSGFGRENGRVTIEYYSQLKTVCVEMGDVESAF
Sequence of cysteines in MDA-MB-231 and Ramos cells (Homo sapiens, UniProt P51610) (P51610 whole entry): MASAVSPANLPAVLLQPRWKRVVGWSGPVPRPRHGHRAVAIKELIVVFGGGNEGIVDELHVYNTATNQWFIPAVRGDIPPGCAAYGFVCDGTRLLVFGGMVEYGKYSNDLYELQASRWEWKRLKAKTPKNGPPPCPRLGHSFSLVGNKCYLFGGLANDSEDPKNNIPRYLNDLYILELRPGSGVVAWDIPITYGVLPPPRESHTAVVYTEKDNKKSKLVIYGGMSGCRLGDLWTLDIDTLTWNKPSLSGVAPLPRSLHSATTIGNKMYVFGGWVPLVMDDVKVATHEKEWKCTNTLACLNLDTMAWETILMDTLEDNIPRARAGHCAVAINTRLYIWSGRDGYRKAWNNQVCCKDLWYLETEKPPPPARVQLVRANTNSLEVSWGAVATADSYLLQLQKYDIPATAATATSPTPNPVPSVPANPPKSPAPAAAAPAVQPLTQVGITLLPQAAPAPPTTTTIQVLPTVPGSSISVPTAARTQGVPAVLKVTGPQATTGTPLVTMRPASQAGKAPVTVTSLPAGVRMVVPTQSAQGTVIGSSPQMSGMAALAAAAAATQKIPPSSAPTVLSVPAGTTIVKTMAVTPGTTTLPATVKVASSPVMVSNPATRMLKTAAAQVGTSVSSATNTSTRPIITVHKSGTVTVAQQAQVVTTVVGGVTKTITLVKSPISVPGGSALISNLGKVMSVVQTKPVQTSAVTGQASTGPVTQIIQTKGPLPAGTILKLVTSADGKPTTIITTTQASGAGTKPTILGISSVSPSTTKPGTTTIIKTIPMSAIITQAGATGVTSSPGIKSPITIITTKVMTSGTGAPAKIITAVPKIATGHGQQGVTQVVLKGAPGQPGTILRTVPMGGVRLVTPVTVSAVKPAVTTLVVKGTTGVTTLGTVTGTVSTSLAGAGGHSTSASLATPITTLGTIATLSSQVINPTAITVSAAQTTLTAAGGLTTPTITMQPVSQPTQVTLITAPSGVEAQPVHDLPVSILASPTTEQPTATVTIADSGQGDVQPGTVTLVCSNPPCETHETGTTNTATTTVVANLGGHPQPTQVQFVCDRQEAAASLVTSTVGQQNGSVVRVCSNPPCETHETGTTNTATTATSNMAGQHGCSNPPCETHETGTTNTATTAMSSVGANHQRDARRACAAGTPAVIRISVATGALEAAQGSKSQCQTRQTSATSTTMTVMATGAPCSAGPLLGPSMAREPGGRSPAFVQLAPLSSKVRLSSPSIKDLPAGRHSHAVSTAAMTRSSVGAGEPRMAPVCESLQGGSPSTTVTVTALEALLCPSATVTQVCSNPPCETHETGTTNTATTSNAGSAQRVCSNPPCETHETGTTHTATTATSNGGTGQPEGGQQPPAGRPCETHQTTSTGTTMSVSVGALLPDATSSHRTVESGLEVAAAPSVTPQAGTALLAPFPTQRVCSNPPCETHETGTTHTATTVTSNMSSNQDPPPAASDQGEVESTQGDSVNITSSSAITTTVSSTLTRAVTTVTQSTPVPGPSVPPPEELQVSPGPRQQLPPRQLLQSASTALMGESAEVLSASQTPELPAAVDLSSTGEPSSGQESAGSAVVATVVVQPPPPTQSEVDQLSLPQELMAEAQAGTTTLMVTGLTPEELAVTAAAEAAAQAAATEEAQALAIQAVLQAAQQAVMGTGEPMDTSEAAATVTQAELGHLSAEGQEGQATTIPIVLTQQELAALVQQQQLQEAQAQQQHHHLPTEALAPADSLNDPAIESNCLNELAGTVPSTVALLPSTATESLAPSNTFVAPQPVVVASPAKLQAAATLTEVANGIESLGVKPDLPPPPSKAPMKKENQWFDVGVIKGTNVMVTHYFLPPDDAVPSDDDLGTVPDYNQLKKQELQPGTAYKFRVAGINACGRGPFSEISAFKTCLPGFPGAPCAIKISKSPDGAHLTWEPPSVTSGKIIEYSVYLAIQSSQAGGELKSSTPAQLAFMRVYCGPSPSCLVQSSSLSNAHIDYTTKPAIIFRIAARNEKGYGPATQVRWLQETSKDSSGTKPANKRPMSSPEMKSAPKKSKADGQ
Sequence of cysteines in MDA-MB-231 and Ramos cells (Homo sapiens, UniProt Q5MNZ6) (Q5MNZ6 whole entry): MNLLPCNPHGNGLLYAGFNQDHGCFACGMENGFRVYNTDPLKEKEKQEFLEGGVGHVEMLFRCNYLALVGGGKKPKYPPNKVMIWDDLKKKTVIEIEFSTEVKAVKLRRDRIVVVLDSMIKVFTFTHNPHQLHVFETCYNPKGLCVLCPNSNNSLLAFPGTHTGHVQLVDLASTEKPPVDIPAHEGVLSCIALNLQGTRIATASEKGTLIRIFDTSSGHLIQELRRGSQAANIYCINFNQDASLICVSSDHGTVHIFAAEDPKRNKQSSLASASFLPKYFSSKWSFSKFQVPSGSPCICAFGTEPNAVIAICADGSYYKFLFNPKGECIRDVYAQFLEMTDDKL
Sequence of cysteines in MDA-MB-231 and Ramos cells (Homo sapiens, UniProt Q96NY7) (Q96NY7 whole entry): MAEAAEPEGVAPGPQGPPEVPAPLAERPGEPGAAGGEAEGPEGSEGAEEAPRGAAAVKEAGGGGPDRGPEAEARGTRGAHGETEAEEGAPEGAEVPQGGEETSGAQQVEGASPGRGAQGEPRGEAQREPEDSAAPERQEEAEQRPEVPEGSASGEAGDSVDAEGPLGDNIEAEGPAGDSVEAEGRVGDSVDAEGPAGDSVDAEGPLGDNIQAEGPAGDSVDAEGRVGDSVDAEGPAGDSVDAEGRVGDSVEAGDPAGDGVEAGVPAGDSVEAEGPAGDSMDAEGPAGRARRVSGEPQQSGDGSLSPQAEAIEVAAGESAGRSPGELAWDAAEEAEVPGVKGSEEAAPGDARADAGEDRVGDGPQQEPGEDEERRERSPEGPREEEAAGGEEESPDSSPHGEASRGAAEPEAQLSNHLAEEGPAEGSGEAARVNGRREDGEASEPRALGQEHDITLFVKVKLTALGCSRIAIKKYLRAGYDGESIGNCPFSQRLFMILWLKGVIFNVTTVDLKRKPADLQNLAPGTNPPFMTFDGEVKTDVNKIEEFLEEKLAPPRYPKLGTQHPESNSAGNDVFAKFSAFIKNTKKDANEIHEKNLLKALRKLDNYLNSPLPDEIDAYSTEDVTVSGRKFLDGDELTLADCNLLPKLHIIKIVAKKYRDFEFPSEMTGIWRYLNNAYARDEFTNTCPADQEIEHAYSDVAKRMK
Sequence of cysteines in MDA-MB-231 and Ramos cells (Homo sapiens, UniProt Q8NDH3) (Q8NDH3 whole entry): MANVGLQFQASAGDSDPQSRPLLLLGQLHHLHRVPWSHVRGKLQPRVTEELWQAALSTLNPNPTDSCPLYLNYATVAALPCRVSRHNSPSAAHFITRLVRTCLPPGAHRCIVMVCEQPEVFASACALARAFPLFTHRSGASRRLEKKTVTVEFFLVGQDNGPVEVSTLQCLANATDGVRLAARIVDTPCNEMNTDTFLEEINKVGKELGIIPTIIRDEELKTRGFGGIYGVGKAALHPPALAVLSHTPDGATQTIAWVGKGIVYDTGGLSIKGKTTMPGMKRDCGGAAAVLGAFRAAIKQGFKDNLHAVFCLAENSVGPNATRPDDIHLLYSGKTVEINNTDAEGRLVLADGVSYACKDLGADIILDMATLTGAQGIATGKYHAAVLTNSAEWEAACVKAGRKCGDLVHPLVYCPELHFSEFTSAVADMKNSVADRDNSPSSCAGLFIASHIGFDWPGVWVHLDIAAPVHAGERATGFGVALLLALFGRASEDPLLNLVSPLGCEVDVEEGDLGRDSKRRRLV

## COc1ccc2c(c1)CCCN2C(=O)CCl [compound 2]
[1]; 200 μM, insitu, 231
  isoTOP-ABPP reactivity P51610_C1872 HCFC1: 4.1
[2]; 231
  isoTOP-ABPP reactivity Q13630_C116 TSTA3: 20.0
[3]; 200 μM, insitu, 231
  isoTOP-ABPP reactivity Q86YH6_C71 PDSS2: 20.0
[4]; 200 μM, insitu, 231
  isoTOP-ABPP reactivity Q8NDH3_C81 NPEPL1: 20.0
[5]; 200 μM, insitu, 231
  isoTOP-ABPP reactivity Q96EY5_C231 FAM125A: 4.1

## COc1ccc(C2CC(c3cccs3)=NN2C(=O)CCl)cc1 (stereo not shown) [compound 4]
[6]; 100 μM in situ 231
  isoTOP-ABPP reactivity P22061_C102 PCMT1: 2.8
[7]; 100 μM in situ 231
  isoTOP-ABPP reactivity P35754_C23 GLRX: 20.0
[8]; 100 μM in situ 231
  isoTOP-ABPP reactivity P48643_C253 CCT5: 0.8
[9]; 100 μM in situ 231
  isoTOP-ABPP reactivity Q00765_018 REEP5: 20.0
[10]; 100 μM in situ 231
  isoTOP-ABPP reactivity Q5MNZ6_C63 WDR45L: 2.0
[3]; 100 μM in situ 231
  isoTOP-ABPP reactivity Q86YH6_C71 PDSS2: 20.0
[4]; 100 μM in situ 231
  isoTOP-ABPP reactivity Q8NDH3_C81 NPEPL1: 20.0
[5]; 100 μM in situ 231
  isoTOP-ABPP reactivity Q96EY5_C231 FAM125A: 1.7
[11]; 100 μM in situ 231
  isoTOP-ABPP reactivity Q96NY7_C487 CLIC6: 20.0
[12]; 100 μM in situ 231
  isoTOP-ABPP reactivity Q9NPH0_C267 ACP6: 20.0

## COc1cc2c(cc1OC)CN(C(=O)CCl)CC2 [compound 8]
[6]; 200 μM, insitu, 231
  isoTOP-ABPP reactivity P22061_C102 PCMT1: 4.5
[8]; 200 μM, insitu, 231
  isoTOP-ABPP reactivity P48643_C253 CCT5: 0.8
[9]; 200 μM, insitu, 231
  isoTOP-ABPP reactivity Q00765_018 REEP5: 2.7
[10]; 200 μM, insitu, 231
  isoTOP-ABPP reactivity Q5MNZ6_C63 WDR45L: 20.0
[4]; 200 μM, insitu, 231
  isoTOP-ABPP reactivity Q8NDH3_C81 NPEPL1: 20.0
[11]; 200 μM, insitu, 231
  isoTOP-ABPP reactivity Q96NY7_C487 CLIC6: 5.1
[12]; 200 μM, insitu, 231
  isoTOP-ABPP reactivity Q9NPH0_C267 ACP6: 20.0

## O=C(CCl)N1CCC(Cc2ccccc2)CC1 [compound 9]
[6]; 200 μM, insitu, 231
  isoTOP-ABPP reactivity P22061_C102 PCMT1: 1.2
[13]; 231
  isoTOP-ABPP reactivity P49189_C288 ALDH9A1: 20.0
[14]; 200 μM, insitu, 231
  isoTOP-ABPP reactivity P51812_C436 RPS6KA3: 2.1
[2]; 231
  isoTOP-ABPP reactivity Q13630_C116 TSTA3: 1.9
[5]; 200 μM, insitu, 231
  isoTOP-ABPP reactivity Q96EY5_C231 FAM125A: 1.9
[11]; 200 μM, insitu, 231
  isoTOP-ABPP reactivity Q96NY7_C487 CLIC6: 3.6

## O=C(CCl)N1CCN(S(=O)(=O)c2ccccc2F)CC1 [compound 10]
[6]; 200 μM, insitu, 231
  isoTOP-ABPP ratio P22061_C102: 1.6
[7]; 200 μM, insitu, ramos
  isoTOP-ABPP ratio P35754_C23: 13.0
[8]; 200 μM, insitu, ramos
  isoTOP-ABPP ratio P48643_C253: 0.9
[13]; 231
  isoTOP-ABPP ratio P49189_C288: 20.0
[1]; 200 μM, insitu, 231
  isoTOP-ABPP ratio, cysteine P51610_C1872: 1.5
[9]; 200 μM, insitu, 231
  isoTOP-ABPP ratio Q00765_C18: 4.2
[2]; 231
  isoTOP-ABPP ratio, cysteine Q13630_C116: 20.0
[10]; 200 μM, insitu, 231
  isoTOP-ABPP ratio Q5MNZ6_C63: 3.6
[3]; 200 μM, insitu, 231
  isoTOP-ABPP ratio Q86YH6_C71: 20.0
[4]; 200 μM, insitu, 231
  isoTOP-ABPP ratio, cysteine Q8NDH3_C81: 5.7
[11]; 200 μM, insitu, 231
  isoTOP-ABPP ratio Q96NY7_C487: 3.2
[12]; 200 μM, insitu, 231
  isoTOP-ABPP ratio, cysteine Q9NPH0_C267: 13.4

## Cn1cc(S(=O)(=O)N2CCOCC2)cc1C(=O)NC(=O)CCl [compound 11]
[6]; 100 μM in situ 231
  isoTOP-ABPP ratio P22061_C102: 0.8
[7]; 100 μM in situ 231
  isoTOP-ABPP ratio P35754_C23: 20.0
[8]; 100 μM in situ 231
  isoTOP-ABPP ratio P48643_C253: 0.6
[1]; 100 μM in situ 231
  isoTOP-ABPP ratio, cysteine P51610_C1872: 0.5
[14]; 100 μM in situ 231
  isoTOP-ABPP ratio, cysteine P51812_C436: 0.5
[9]; 100 μM in situ 231
  isoTOP-ABPP ratio Q00765_C18: 0.8
[10]; 100 μM in situ 231
  isoTOP-ABPP ratio Q5MNZ6_C63: 0.9
[3]; 100 μM in situ 231
  isoTOP-ABPP ratio Q86YH6_C71: 1.0
[5]; 100 μM in situ 231
  isoTOP-ABPP ratio, cysteine Q96EY5_C231: 0.7
[11]; 100 μM in situ 231
  isoTOP-ABPP ratio Q96NY7_C487: 3.1

## O=C(CCl)NC(=O)NC12CC3CC(CC(C3)C1)C2 [compound 12]
[6]; 200 μM, insitu, 231
  isoTOP-ABPP ratio P22061_C102: 5.8
[7]; 200 μM, insitu, 231
  isoTOP-ABPP ratio P35754_C23: 20.0
[8]; 200 μM, insitu, 231
  isoTOP-ABPP ratio P48643_C253: 5.1
[13]; 231
  isoTOP-ABPP ratio P49189_C288: 1.8
[14]; 200 μM, insitu, 231
  isoTOP-ABPP ratio, cysteine P51812_C436: 1.4
[9]; 200 μM, insitu, 231
  isoTOP-ABPP ratio Q00765_C18: 20.0
[10]; 200 μM, insitu, 231
  isoTOP-ABPP ratio Q5MNZ6_C63: 20.0
[3]; 200 μM, insitu, 231
  isoTOP-ABPP ratio Q86YH6_C71: 20.0
[4]; 200 μM, insitu, 231
  isoTOP-ABPP ratio, cysteine Q8NDH3_C81: 20.0
[11]; 200 μM, insitu, 231
  isoTOP-ABPP ratio Q96NY7_C487: 20.0

## O=C(CCl)NCCc1c[nH]c2ccccc12 [compound 13]
[6]; 200 μM, insitu, 231
  isoTOP-ABPP ratio P22061_C102: 0.9
[13]; ramos
  isoTOP-ABPP ratio P49189_C288: 12.0
[1]; 200 μM, insitu, 231
  isoTOP-ABPP ratio, cysteine P51610_C1872: 1.0
[14]; 200 μM, insitu, 231
  isoTOP-ABPP ratio, cysteine P51812_C436: 1.0
[9]; 200 μM, insitu, 231
  isoTOP-ABPP ratio Q00765_C18: 1.2
[2]; ramos
  isoTOP-ABPP ratio, cysteine Q13630_C116: 1.2
[10]; 200 μM, insitu, 231
  isoTOP-ABPP ratio Q5MNZ6_C63: 1.1
[3]; 200 μM, insitu, 231
  isoTOP-ABPP ratio Q86YH6_C71: 1.2
[3]; 200 μM, insitu, ramos
  isoTOP-ABPP ratio Q86YH6_C71: 1.8
[11]; 200 μM, insitu, 231
  isoTOP-ABPP ratio Q96NY7_C487: 1.9
